Results published in US8367366B2, “Methods and kits for quantitative methyltransferase and demethylase measurements” (The Board of Trustees of the University of Arkansas, priority 2010, dated 2013).

Target: LSD1 (Homo sapiens, UniProt O60341)
Assay: biochemical
Settings: read-out: inhibits LSD1 activity
Procedure: MassSQUIRM Lysine residues were chemically dimethylated using a reductive methylation technique adapted from Rayment, et al (21). […] This reaction was incubated for 2 hours at 4° C. Fresh aliquots of borane dimethylamine and formaldehyde were added and the reaction was again incubated at 4° C. for two hours. A final aliquot of borane dimethylamine was added and the reaction was incubated at 4° C. for ˜16 hours. The reaction was quenched with 80 mM Tris-Cl, pH 7.5. Peptides were incubated with POROS R220 micron beads (Applied Biosystems), collected with a C18 ZipTip™ (Millipore) and spotted for MALDI analysis in 2,5-dihydroxybenzoic acid. Mass spectra of peptides were collected with a MALDI-prOTOF mass spectrometer (PerkinElmerSciex) (61, 62). Spectra were viewed and peak areas extracted using MoverZ™ software (Genomic Solutions). Reaction products were verified by MS^2 with a Thermo LTQ XL mass spectrometer coupled to a NanoLC-2D™ liquid chromatography system (Eksigent).
Demethylase Assay. […] The reaction proceeded for 2 hr at 37° C. Reaction products were collected with POROS R2 20 micron beads for 15 minutes at room temperature, loaded into a C18 ZipTip, eluted in 40 μL 70% acetonitrile/0.1% TFA, lyophilized, and subjected to MassSQUIRM as described above.
LSD1 Inhibition Assay. […]

inhibition at 16700 µM: 96%
SMILES: NNCCc1ccccc1 [phenylethylhydrazine]
